According to the CheMixHub ionic liquid set:

Experiment: xn = mol fraction of the nth substance listed

CCCCCCCCn1cc[n+](C)c1.[Br-] + O
electrical conductivity [S/m]
Conditions | 298.15 K | 308.15 K
100 kPa, frequency 0.001 MHz, x1 = 0.0006843 | 0.249 | –
100 kPa, frequency 0.001 MHz, x1 = 0.0009721 | 0.348 | –
100 kPa, frequency 0.001 MHz, x1 = 0.001278 | 0.462 | –
100 kPa, frequency 0.001 MHz, x1 = 0.001601 | 0.576 | –
100 kPa, frequency 0.001 MHz, x1 = 0.001889 | 0.683 | –
100 kPa, frequency 0.001 MHz, x1 = 0.002176 | 0.778 | –
100 kPa, frequency 0.001 MHz, x1 = 0.002445 | 0.88 | –
100 kPa, frequency 0.001 MHz, x1 = 0.002714 | 0.965 | –
100 kPa, frequency 0.001 MHz, x1 = 0.003072 | 1.06 | –
100 kPa, frequency 0.001 MHz, x1 = 0.003341 | 1.1 | –
100 kPa, frequency 0.001 MHz, x1 = 0.003681 | 1.15 | –
100 kPa, frequency 0.001 MHz, x1 = 0.004092 | 1.22 | –
100 kPa, frequency 0.001 MHz, x1 = 0.004592 | 1.28 | –
101 kPa, frequency 1 MHz, x1 = 0.0001962 | 0.1011 | 0.122

Conditions | electrical conductivity [S/m] | viscosity [mPa·s]
298.15 K, 100 kPa, x1 = 6.847e-05 | – | 0.892
298.15 K, 100 kPa, x1 = 0.0003279 | – | 0.899
298.15 K, 101 kPa, x1 = 1.982e-05 | – | 0.891
298.15 K, 101 kPa, x1 = 3.243e-05 | – | 0.892
298.15 K, 101 kPa, x1 = 0.0001962 | – | 0.912
298.15 K, 101 kPa, x1 = 0.001831 | – | 0.965
298.15 K, 101 kPa, x1 = 0.003519 | 1.17 | –
298.15 K, 101 kPa, x1 = 0.003598 | – | 1.025
298.15 K, 101 kPa, x1 = 0.00377 | 1.23 | –
298.15 K, 101 kPa, x1 = 0.003967 | 1.26 | –
298.15 K, 101 kPa, x1 = 0.004163 | 1.3 | –
298.15 K, 101 kPa, x1 = 0.004378 | 1.34 | –
298.15 K, 101 kPa, x1 = 0.004538 | 1.36 | –
298.15 K, 101 kPa, x1 = 0.004717 | 1.39 | –
298.15 K, 101 kPa, x1 = 0.004895 | 1.41 | –
298.15 K, 101 kPa, x1 = 0.005109 | 1.45 | –
298.15 K, 101 kPa, x1 = 0.005288 | 1.48 | –
298.15 K, 101 kPa, x1 = 0.005443 | – | 1.103
298.15 K, 101 kPa, x1 = 0.005484 | 1.51 | –
298.15 K, 101 kPa, x1 = 0.005698 | 1.54 | –
298.15 K, 101 kPa, x1 = 0.005894 | 1.56 | –
298.15 K, 101 kPa, x1 = 0.007132 | – | 1.172
303.15 K, 100 kPa, x1 = 0.0002 | – | 0.803
308.15 K, 100 kPa, x1 = 0.0003279 | – | 0.726
308.15 K, 101 kPa, x1 = 0.0001962 | – | 0.736
313.15 K, 100 kPa, x1 = 0.0002 | – | 0.657

CCCCCCCC[n+]1ccn(C)c1.O=C([O-])[C@@H]1CCCN1 + O
298.15 K, 100 kPa, frequency 0.001 MHz
Conditions | electrical conductivity [S/m]
x1 = 0.001745 | 0.149
x1 = 0.002409 | 0.209
x1 = 0.002947 | 0.264
x1 = 0.003555 | 0.308
x1 = 0.004199 | 0.369
x1 = 0.004895 | 0.425
x1 = 0.005502 | 0.483
x1 = 0.006143 | 0.531
x1 = 0.006819 | 0.572
x1 = 0.0076 | 0.608
x1 = 0.008416 | 0.648
x1 = 0.009336 | 0.688
x1 = 0.01018 | 0.725
x1 = 0.01137 | 0.783
x1 = 0.01233 | 0.819
x1 = 0.01355 | 0.879

CC(C)O + CCCCCC[n+]1ccn(C)c1.O=S(=O)([O-])C(F)(F)F
100 kPa, x1 = 1
Conditions | viscosity [mPa·s]
298.15 K | 2.05
308.15 K | 1.49

CCCC[N+]1(C)CCCC1.O=S(=O)([N-]S(=O)(=O)C(F)(F)F)C(F)(F)F + Cc1ccccc1
viscosity [mPa·s], 100 kPa
Conditions | x2 = 0 | x2 = 0.3041 | x2 = 0.3965 | x2 = 0.5054 | x2 = 0.6027 | x2 = 0.7066
298.15 K | 70.1 | – | – | 14.96 | 10.08 | –
303.15 K | – | 25.03 | 18.66 | – | – | –
313.15 K | 37.99 | 18.55 | 14.35 | – | – | 4.73
